What was measured:
NCI-H358 [1] = test: Antiproliferative activity against human NCI-H358 cells assessed as inhibition of cell proliferation incubated for 7 days by celltiter-glo 3D assay; type: functional, cell-based; details: NCI-H358, 168 h
[2] = biological target: Protein cereblon/Son of sevenless homolog 1 (Homo sapiens, UniProt Q07889+Q96SW2); test: PROTAC activity at CRBN/SOS1 in human NCI-H358 cells assessed as induction of SOS1 degradation incubated for 6 hrs by Western blotting analysis; type: cell-based
Sequence of Protein cereblon/Son of sevenless homolog 1 (Q07889 whole entry): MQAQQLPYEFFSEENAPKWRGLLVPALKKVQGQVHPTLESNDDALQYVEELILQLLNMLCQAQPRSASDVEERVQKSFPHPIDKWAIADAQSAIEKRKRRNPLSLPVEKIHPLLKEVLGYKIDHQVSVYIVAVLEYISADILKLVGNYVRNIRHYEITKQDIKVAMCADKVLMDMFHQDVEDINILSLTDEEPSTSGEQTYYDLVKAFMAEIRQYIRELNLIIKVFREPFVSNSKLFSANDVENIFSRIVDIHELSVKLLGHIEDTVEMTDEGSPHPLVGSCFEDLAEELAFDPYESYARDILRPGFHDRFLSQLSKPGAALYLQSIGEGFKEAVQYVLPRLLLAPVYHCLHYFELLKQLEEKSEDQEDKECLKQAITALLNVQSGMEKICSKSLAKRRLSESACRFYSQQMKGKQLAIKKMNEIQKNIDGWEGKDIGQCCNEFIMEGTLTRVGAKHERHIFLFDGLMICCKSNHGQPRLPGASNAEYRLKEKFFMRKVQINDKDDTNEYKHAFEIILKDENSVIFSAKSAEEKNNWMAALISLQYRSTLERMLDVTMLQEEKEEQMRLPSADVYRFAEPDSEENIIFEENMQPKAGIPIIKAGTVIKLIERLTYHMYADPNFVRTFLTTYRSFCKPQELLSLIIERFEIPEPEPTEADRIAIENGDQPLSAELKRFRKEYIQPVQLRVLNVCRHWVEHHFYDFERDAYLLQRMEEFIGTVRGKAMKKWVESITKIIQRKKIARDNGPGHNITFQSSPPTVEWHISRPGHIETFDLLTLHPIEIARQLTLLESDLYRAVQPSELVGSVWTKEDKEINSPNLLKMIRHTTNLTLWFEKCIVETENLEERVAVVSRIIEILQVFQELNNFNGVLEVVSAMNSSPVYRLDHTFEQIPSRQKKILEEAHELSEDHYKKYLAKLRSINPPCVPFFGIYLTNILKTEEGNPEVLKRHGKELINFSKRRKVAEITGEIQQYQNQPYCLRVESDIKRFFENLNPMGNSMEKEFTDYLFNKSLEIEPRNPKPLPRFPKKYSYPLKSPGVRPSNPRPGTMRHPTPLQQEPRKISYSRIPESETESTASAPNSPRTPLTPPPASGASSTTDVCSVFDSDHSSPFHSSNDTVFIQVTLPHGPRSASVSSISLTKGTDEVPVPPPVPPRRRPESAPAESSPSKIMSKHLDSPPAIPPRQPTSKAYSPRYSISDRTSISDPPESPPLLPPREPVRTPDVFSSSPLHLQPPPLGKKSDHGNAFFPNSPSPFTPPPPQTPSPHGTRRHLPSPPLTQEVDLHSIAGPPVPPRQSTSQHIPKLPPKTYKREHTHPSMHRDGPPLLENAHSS
Sequence of Protein cereblon/Son of sevenless homolog 1 (Q96SW2 whole entry): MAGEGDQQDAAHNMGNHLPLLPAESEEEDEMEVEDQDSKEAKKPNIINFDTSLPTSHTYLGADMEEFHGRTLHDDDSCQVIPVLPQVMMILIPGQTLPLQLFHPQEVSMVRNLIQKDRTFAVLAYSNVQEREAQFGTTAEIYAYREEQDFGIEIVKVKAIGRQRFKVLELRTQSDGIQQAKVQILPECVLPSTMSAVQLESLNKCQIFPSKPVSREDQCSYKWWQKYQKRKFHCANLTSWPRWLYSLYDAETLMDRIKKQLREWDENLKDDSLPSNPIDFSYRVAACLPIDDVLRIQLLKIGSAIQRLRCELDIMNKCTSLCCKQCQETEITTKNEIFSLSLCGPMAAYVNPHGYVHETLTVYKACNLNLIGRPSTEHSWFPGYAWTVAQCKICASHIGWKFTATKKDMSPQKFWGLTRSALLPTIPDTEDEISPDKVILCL

SOS1-KRAS = SOS1-KRAS (Homo sapiens, UniProt Q07889); test: Inhibition of SOS1/KRAS G12C mutant (unknown origin); type: protein-complex assay
Sequence of SOS1-KRAS (Q07889 whole entry, looked up, stated change not applied): as the sequence (Q07889 whole entry) above

NCI-H358 [3] = test: Antiproliferative activity against human NCI-H358 cells assessed as reduction in cell viability
NCI-H358 [4] = test: Antiproliferative activity against human NCI-H358 cells harboring G12C mutant assessed as inhibition of cell proliferation incubated for 7 days by celltiter-glo 3D assay; type: functional, cell-based; details: NCI-H358, 168 h
[5] = Antiproliferative activity against human GP2d cells harboring G12D mutant assessed as inhibition of cell proliferation incubated for 7 days by celltiter-glo 3D assay; type: functional, cell-based; details: 168 h
NCI-H441 = test: Antiproliferative activity against human NCI-H441 cells harboring G12V mutant assessed as inhibition of cell proliferation incubated for 7 days by celltiter-glo 3D assay; type: functional, cell-based; details: NCI-H441, 168 h
DLD-1 = test: Antiproliferative activity against human DLD-1 cells harboring G13D mutant assessed as inhibition of cell proliferation incubated for 7 days by celltiter-glo 3D assay; type: functional, cell-based; details: DLD-1, 168 h
NCI-H358 [6] = test: Antitumor activity against human NCI-H358 cells xenografted in BALB/c nude mouse assessed as tumor growth inhibition at 30 mg/kg, ip measured twice daily for 21 days; type: functional; details: NCI-H358, 504 h, time 21 day, read-out: TGI
[7] = Toxicity in BALB/c nude mouse xenografted with human NCI-H358 cells assessed as body weight loss at 30 mg/kg, ip measured every 3 days for 21 days; type: organism-based; details: in vivo, 504 h, time 21 day

| Structure (SMILES) | IC50 (NCI-H358 [1]) [nM] | further results |
| --- | --- | --- |
| COc1cc2nc(C)nc(N[C@H](C)c3cc(N)cc(C(F)(F)F)c3)c2cc1OCC1(CN(C)C(=O)CCOCCOCCNc2cccc3c2C(=O)N(C2CCC(=O)NC2=O)C3=O)CC1 (stereo partly specified) | 421 |  |
| COc1cc2nc(C)nc(N[C@H](C)c3cccc(C(F)F)c3F)c2cc1OCC1(CN(C)C(=O)CCCCCCNc2cccc3c2C(=O)N(C2CCC(=O)NC2=O)C3=O)CC1 (stereo partly specified) | 216 | DC50 ([2]; read-out: DC50): 540 nM |
| COc1cc2nc(C)nc(N[C@H](C)c3cc(N)cc(C(F)(F)F)c3)c2cc1OCC1(CN(C)C(=O)COCCNc2cccc3c2C(=O)N(C2CCC(=O)NC2=O)C3=O)CC1 (stereo partly specified) | 1380 |  |
| COc1cc2nc(C)nc(N[C@H](C)c3cc(N)cc(C(F)(F)F)c3)c2cc1OCC1(CN(C)C(=O)CCCCCCNc2ccc3c(c2F)C(=O)N(C2CCC(=O)NC2=O)C3=O)CC1 (stereo partly specified) | 4180 |  |
| COc1cc2nc(C)nc(N[C@H](C)c3cc(N)cc(C(F)(F)F)c3)c2cc1OCC1(CN(C)C(=O)COCCCCNc2cccc3c2C(=O)N(C2CCC(=O)NC2=O)C3=O)CC1 (stereo partly specified) | 114 |  |
| COc1cc2nc(C)nc(N[C@H](C)c3cc(N)cc(C(F)(F)F)c3)c2cc1OCC1(CN(C)C(=O)CCC(=O)N(C)C2CCC(Nc3cccc4c3C(=O)N(C3CCC(=O)NC3=O)C4=O)CC2)CC1 (stereo partly specified) | 927 |  |
| COc1cc2nc(C)nc(N[C@H](C)c3cc(N)cc(C(F)(F)F)c3)c2cc1OCC1(CN(C)C(=O)C2CCN(CCNc3cccc4c3C(=O)N(C3CCC(=O)NC3=O)C4=O)CC2)CC1 (stereo partly specified) | 18 | DC50 ([2]; read-out: DC50): 44 nM |
| COc1cc2nc(C)nc(N[C@H](C)c3cc(N)cc(C(F)(F)F)c3)c2cc1O[C@H]1CCOC1 | 26 | IC50 (NCI-H358 [3]): 24 nM; IC50 (NCI-H358 [4]): 26 nM; IC50 [5]: 17 nM; IC50 (NCI-H441): 68 nM; IC50 (DLD-1): 102 nM; inhibition in vivo at 30 mg/kg (NCI-H358 [6]): 39.4%; Activity [7]: Non-Toxic |
| COc1cc2nc(C)nc(N[C@H](C)c3cc(N)cc(C(F)(F)F)c3)c2cc1OCC1(CN(C)C(=O)C2CCN(C3CCC(Nc4cccc5c4C(=O)N(C4CCC(=O)NC4=O)C5=O)CC3)CC2)CC1 (stereo partly specified) | 51 | DC50 ([2]; read-out: DC50): 55 nM |
| COc1cc2nc(C)nc(N[C@H](C)c3cc(N)cc(C(F)(F)F)c3)c2cc1OCC1(CN(C)C(=O)CCNc2cccc3c2C(=O)N(C2CCC(=O)NC2=O)C3=O)CC1 (stereo partly specified) | 2890 |  |
| COc1cc2nc(C)nc(N[C@H](C)c3cc(N)cc(C(F)(F)F)c3)c2cc1OCC1(CN(C)C(=O)CCCCCCNc2ccc3c(c2)C(=O)N(C2CCC(=O)NC2=O)C3=O)CC1 (stereo partly specified) | 799 |  |
| O=C(O)CCCCCCNc1cccc2c1C(=O)N(C1CCC(=O)NC1=O)C2=O (stereo unspecified) |  | DC50 [2]: Not Active |
| COc1cc2nc(C)nc(N[C@H](C)c3cc(N)cc(C(F)(F)F)c3)c2cc1OCC1(CN(C)C(=O)C2CCN(C(=O)C3CCN(c4ccc5c(c4)C(=O)N(C4CCC(=O)NC4=O)C5=O)CC3)CC2)CC1 (stereo partly specified) | 84 |  |
| COc1cc2nc(C)nc(N[C@H](C)c3cc(N)cc(C(F)(F)F)c3)c2cc1OCC1(CN(C)C(=O)C2CCC(OC3CCN(c4ccc5c(c4)C(=O)N(C4CCC(=O)NC4=O)C5=O)CC3)CC2)CC1 (stereo partly specified) | 733 |  |
| COc1cc2nc(C)nc(N[C@H](C)c3cc(N)cc(C(F)(F)F)c3)c2cc1OCC1(CN(C)C(=O)CCCN(C)C2CCC(Nc3cccc4c3C(=O)N(C3CCC(=O)NC3=O)C4=O)CC2)CC1 (stereo partly specified) | 814 |  |
| COc1cc2nc(C)nc(N[C@H](C)c3cc(N)cc(C(F)(F)F)c3)c2cc1OCC1(CN(C)C(=O)CCCOCCNc2cccc3c2C(=O)N(C2CCC(=O)NC2=O)C3=O)CC1 (stereo partly specified) | 70 |  |
| COc1cc2nc(C)nc(N[C@H](C)c3cc(N)cc(C(F)(F)F)c3)c2cc1OCC1(CN(C)C(=O)CN2CCC(OC3CCN(c4ccc5c(c4)C(=O)N(C4CCC(=O)NC4=O)C5=O)CC3)CC2)CC1 (stereo partly specified) | 814 |  |
| COc1cc2nc(C)nc(N[C@H](C)c3cc(N)cc(C(F)(F)C(C)(C)O)c3)c2cc1OCC1(CN(C)C(=O)CCCCCCNc2cccc3c2C(=O)N(C2CCC(=O)NC2=O)C3=O)CC1 (stereo partly specified) | 220 |  |
| COc1cc2nc(C)nc(N[C@H](C)c3cc(N)cc(C(F)(F)F)c3)c2cc1OCC1(CN(C)C(=O)CN2CCC(CN3CCN(c4ccc5c(c4)C(=O)N(C4CCC(=O)NC4=O)C5=O)CC3)CC2)CC1 (stereo partly specified) | 1080 |  |
| COc1cc2nc(C)nc(N[C@H](C)c3cc(N)cc(C(F)(F)F)c3)c2cc1OCC1(CN(C)C(=O)CCCCCCNc2c(F)ccc3c2C(=O)N(C2CCC(=O)NC2=O)C3=O)CC1 (stereo partly specified) | 63 |  |
| COc1cc2nc(C)nc(N[C@H](C)c3cc(N)cc(C(F)(F)F)c3)c2cc1OCC1(CN(C)C(=O)C2CCC(NC3CCN(c4ccc5c(c4)C(=O)N(C4CCC(=O)NC4=O)C5=O)CC3)CC2)CC1 (stereo partly specified) | 513 |  |
| COc1cc2nc(C)nc(N[C@H](C)c3cc(N)cc(C(F)(F)F)c3)c2cc1OCC1(CN(C)C(=O)CCCCCCNc2nccc3c2C(=O)N(C2CCC(=O)NC2=O)C3=O)CC1 (stereo partly specified) | 318 |  |
| COc1cc2nc(C)nc(N[C@H](C)c3cc(N)cc(C(F)(F)F)c3)c2cc1OCC1(CN(C)C(=O)CN2CCN(C3CCN(c4ccc5c(c4)C(=O)N(C4CCC(=O)NC4=O)C5=O)CC3)CC2)CC1 (stereo partly specified) | 928 |  |
| COc1cc2nc(C)nc(N[C@H](C)c3cc(N)cc(C(F)(F)F)c3)c2cc1OCC1(CN(C)C(=O)CCOCCC#Cc2cccc3c2C(=O)N(C2CCC(=O)NC2=O)C3=O)CC1 (stereo partly specified) | 1140 |  |
| COc1cc2nc(C)nc(N[C@H](C)c3cc(N)cc(C(F)(F)F)c3)c2cc1OCC1(CN(C)C(=O)CCCCNc2cccc3c2C(=O)N(C2CCC(=O)NC2=O)C3=O)CC1 (stereo partly specified) | 86 |  |

The next lines start with results.

| IC50 (NCI-H358 [1]) [nM] | Structure (SMILES) | further results |
| --- | --- | --- |
| 1370 | COc1cc2nc(C)nc(N[C@H](C)c3cc(N)cc(C(F)(F)F)c3)c2cc1OCC1(CN(C)C(=O)C2CCC(N3CCN(c4ccc5c(c4)C(=O)N(C4CCC(=O)NC4=O)C5=O)CC3)CC2)CC1 (stereo partly specified) |  |
| 1200 | COc1cc2nc(C)nc(N[C@H](C)c3cc(N)cc(C(F)(F)F)c3)c2cc1OCC1(CN(C)C(=O)CN2CCN(C3CN(c4ccc5c(c4)C(=O)N(C4CCC(=O)NC4=O)C5=O)C3)CC2)CC1 (stereo partly specified) |  |
| 2050 | COc1cc2nc(C)nc(N[C@H](C)c3cccc(C#N)c3C)c2cc1OCC1(CN(C)C(=O)CCCCCCNc2cccc3c2C(=O)N(C2CCC(=O)NC2=O)C3=O)CC1 (stereo partly specified) |  |
| 102 | CNCC1(COc2cc3c(N[C@H](C)c4cc(N)cc(C(F)(F)F)c4)nc(C)nc3cc2OC)CC1 | IC50 (SOS1-KRAS): 10 nM |
| 23 | COc1cc2nc(C)nc(N[C@H](C)c3cc(N)cc(C(F)(F)F)c3)c2cc1OCC1(CN(C)C(=O)CCCCCCNc2ccc(F)c3c2C(=O)N(C2CCC(=O)NC2=O)C3=O)CC1 (stereo partly specified) | DC50 ([2]; read-out: DC50): 63 nM |
| 358 | COc1cc2nc(C)nc(N[C@H](C)c3cccc(C(F)(F)C(C)(C)O)c3F)c2cc1OCC1(CN(C)C(=O)CCCCCCNc2cccc3c2C(=O)N(C2CCC(=O)NC2=O)C3=O)CC1 (stereo partly specified) |  |
| 75 | COc1cc2nc(C)nc(N[C@H](C)c3cc(N)cc(C(F)(F)F)c3)c2cc1OCC1(CN(C)C(=O)CCCCCCOc2cccc3c2C(=O)N(C2CCC(=O)NC2=O)C3=O)CC1 (stereo partly specified) |  |
| 334 | COc1cc2nc(C)nc(N[C@H](C)c3cc(N)cc(C(F)(F)F)c3)c2cc1OCC1(CN(C)C(=O)CCCCCNc2cccc3c2C(=O)N(C2CCC(=O)NC2=O)C3=O)CC1 (stereo partly specified) |  |
| 47 | COc1cc2nc(C)nc(N[C@H](C)c3cc(N)cc(C(F)(F)F)c3)c2cc1OCC1(CN(C)C(=O)CCCCCCNc2cccc3c2CN(C2CCC(=O)NC2=O)C3=O)CC1 (stereo partly specified) | DC50 ([2]; read-out: DC50): 151 nM |
| 1660 | COc1cc2nc(C)nc(N[C@H](C)c3cc(N)cc(C(F)(F)F)c3)c2cc1OCC1(CN(C)C(=O)CCOCCNc2cccc3c2C(=O)N(C2CCC(=O)NC2=O)C3=O)CC1 (stereo partly specified) |  |
| 591 | COc1cc2nc(C)nc(N[C@H](C)c3cc(N)cc(C(F)(F)F)c3)c2cc1OCC1(CN(C)C(=O)CCCCCC#Cc2cccc3c2C(=O)N(C2CCC(=O)NC2=O)C3=O)CC1 (stereo partly specified) |  |
| 1380 | COc1cc2nc(C)nc(N[C@H](C)c3cc(N)cc(C(F)(F)F)c3)c2cc1OCC1(CN(C)C(=O)CCCCCCNc2cccc3c2C(=O)N(C2CCC(=O)N(C)C2=O)C3=O)CC1 (stereo partly specified) | DC50 [2]: Not Active |
| 16 | COc1cc2nc(C)nc(N[C@H](C)c3cc(N)cc(C(F)F)c3)c2cc1OCC1(CN(C)C(=O)CCCCCCNc2cccc3c2C(=O)N(C2CCC(=O)NC2=O)C3=O)CC1 (stereo partly specified) | DC50 ([2]; read-out: DC50): 45 nM |
| 684 | COc1cc2nc(C)nc(N[C@H](C)c3cc(N)cc(C(F)(F)F)c3)c2cc1OCC1(CN(C)C(=O)C2CCN(C3CCN(c4ccc5c(c4)C(=O)N(C4CCC(=O)NC4=O)C5=O)CC3)CC2)CC1 (stereo partly specified) |  |
| 15 | COc1cc2nc(C)nc(N[C@H](C)c3cc(N)cc(C(F)(F)F)c3)c2cc1OCC1(CN(C)C(=O)CCCOC2CCC(Nc3cccc4c3C(=O)N(C3CCC(=O)NC3=O)C4=O)CC2)CC1 (stereo partly specified) | DC50 ([2]; read-out: DC50): 35 nM |
